Measurements as given in PubChem BioAssay (NCI).
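A five-concentration, 48-hour dose response in 96-well plates underlies each endpoint, interpolated linearly between surrounding concentrations. The concentration for 50% growth inhibition is given as GI50. TGI marks complete inhibition of growth.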

Experiments:
Assay in all cases: NCI-60 cell line screen, 48 h
K-562 leukemia = tested on: K-562 leukemia
ACHN renal = tested on: ACHN renal
UACC-257 melanoma = tested on: UACC-257 melanoma
NCI-H522 lung = tested on: NCI-H522 lung
MCF7 breast = tested on: MCF7 breast
TK-10 renal = tested on: TK-10 renal
EKVX NSCLC = tested on: EKVX NSCLC
UO-31 renal = tested on: UO-31 renal
NCI-H460 lung = tested on: NCI-H460 lung
SK-OV-3 ovarian = tested on: SK-OV-3 ovarian
BT-549 breast = tested on: BT-549 breast
HT29 colon = tested on: HT29 colon
HCT-116 colon = tested on: HCT-116 colon
COLO 205 colon = tested on: COLO 205 colon
SK-MEL-28 melanoma = tested on: SK-MEL-28 melanoma
SNB-75 CNS = tested on: SNB-75 CNS
A549 NSCLC = tested on: A549 NSCLC
HOP-62 NSCLC = tested on: HOP-62 NSCLC
SF-268 CNS = tested on: SF-268 CNS
RPMI-8226 leukemia = tested on: RPMI-8226 leukemia
SK-MEL-5 melanoma = tested on: SK-MEL-5 melanoma
OVCAR-4 ovarian = tested on: OVCAR-4 ovarian
SN12C renal = tested on: SN12C renal
HCT-15 colon = tested on: HCT-15 colon
SF-539 CNS = tested on: SF-539 CNS
HS 578T breast = tested on: HS 578T breast
HCC-2998 colon = tested on: HCC-2998 colon
OVCAR-5 ovarian = tested on: OVCAR-5 ovarian
LOX IMVI melanoma = tested on: LOX IMVI melanoma
U251 CNS = tested on: U251 CNS
KM12 colon = tested on: KM12 colon
786-0 renal = tested on: 786-0 renal
IGROV1 ovarian = tested on: IGROV1 ovarian
OVCAR-3 ovarian = tested on: OVCAR-3 ovarian
T-47D breast = tested on: T-47D breast
A498 renal = tested on: A498 renal
NCI-H23 lung = tested on: NCI-H23 lung
HL-60(TB) leukemia = tested on: HL-60(TB) leukemia
SW-620 colon = tested on: SW-620 colon
DU-145 prostate = tested on: DU-145 prostate
M14 melanoma = tested on: M14 melanoma
RXF 393 renal = tested on: RXF 393 renal
MALME-3M melanoma = tested on: MALME-3M melanoma
MDA-MB-231 breast = tested on: MDA-MB-231 breast
SNB-19 CNS = tested on: SNB-19 CNS
UACC-62 melanoma = tested on: UACC-62 melanoma
HOP-92 NSCLC = tested on: HOP-92 NSCLC
OVCAR-8 ovarian = tested on: OVCAR-8 ovarian
MOLT-4 leukemia = tested on: MOLT-4 leukemia
CAKI-1 renal = tested on: CAKI-1 renal
SF-295 CNS = tested on: SF-295 CNS
SK-MEL-2 melanoma = tested on: SK-MEL-2 melanoma
NCI/ADR-RES ovarian = tested on: NCI/ADR-RES ovarian
CCRF-CEM leukemia = tested on: CCRF-CEM leukemia
MDA-MB-435 = tested on: MDA-MB-435
PC-3 prostate = tested on: PC-3 prostate
NCI-H226 lung = tested on: NCI-H226 lung
SR leukemia = tested on: SR leukemia

## CCSCC1CC(O)(c2ccccc2)CC(c2ccc(F)cc2)O1 (stereo not given)
K-562 leukemia
  GI50: 1.83 µM
  TGI: 3.93 µM
ACHN renal
  GI50: 2.37 µM
  TGI: 6.56 µM
UACC-257 melanoma
  GI50: 2.27 µM
  TGI: 5.26 µM
NCI-H522 lung
  GI50: 1.94 µM
  TGI: 5.88 µM
MCF7 breast
  GI50: 2.79 µM
  TGI: 8.98 µM
TK-10 renal
  GI50: 2.16 µM
  TGI: 6.13 µM
EKVX NSCLC
  GI50: 2.13 µM
  TGI: 6.04 µM
UO-31 renal
  GI50: 1.4 µM
  TGI: 5.1 µM
NCI-H460 lung
  GI50: 2.24 µM
  TGI: 4.63 µM
SK-OV-3 ovarian
  GI50: 2.62 µM
  TGI: 7.39 µM
BT-549 breast
  GI50: 1.6 µM
  TGI: 3.45 µM
HT29 colon
  GI50: 1.73 µM
  TGI: 3.46 µM
HCT-116 colon
  GI50: 1.66 µM
  TGI: 3.02 µM
COLO 205 colon
  GI50: 1.53 µM
  TGI: 2.87 µM
SK-MEL-28 melanoma
  GI50: 2.15 µM
  TGI: 4.44 µM
SNB-75 CNS
  GI50: 1.88 µM
  TGI: 5.74 µM
A549 NSCLC
  GI50: 2.74 µM
  TGI: 11 µM
HOP-62 NSCLC
  GI50: 1.75 µM
  TGI: 3.29 µM
SF-268 CNS
  GI50: 2.41 µM
  TGI: 6.11 µM
RPMI-8226 leukemia
  GI50: 1.95 µM
  TGI: 6.46 µM
SK-MEL-5 melanoma
  GI50: 1.74 µM
  TGI: 3.16 µM
OVCAR-4 ovarian
  GI50: 2.69 µM
  TGI: 11.5 µM
SN12C renal
  GI50: 1.74 µM
  TGI: 3.17 µM
HCT-15 colon
  GI50: 2.11 µM
  TGI: 5.49 µM
SF-539 CNS
  GI50: 1.94 µM
  TGI: 3.84 µM
HS 578T breast
  GI50: 1.89 µM
  TGI: 4.36 µM
HCC-2998 colon
  GI50: 2.56 µM
  TGI: 7.11 µM
OVCAR-5 ovarian
  GI50: 2.17 µM
  TGI: 5.09 µM
LOX IMVI melanoma
  GI50: 1.6 µM
  TGI: 2.94 µM
U251 CNS
  GI50: 1.63 µM
  TGI: 3.3 µM
KM12 colon
  GI50: 1.88 µM
  TGI: 3.67 µM
786-0 renal
  GI50: 2.02 µM
  TGI: 4.53 µM
IGROV1 ovarian
  GI50: 2.12 µM
  TGI: 5.75 µM
OVCAR-3 ovarian
  GI50: 1.83 µM
  TGI: 3.4 µM
T-47D breast
  GI50: 2.23 µM
  TGI: 8.24 µM
A498 renal
  GI50: 1.44 µM
  TGI: 2.77 µM
NCI-H23 lung
  GI50: 2.1 µM
  TGI: 5.28 µM
HL-60(TB) leukemia
  GI50: 2.19 µM
  TGI: 4.56 µM
SW-620 colon
  GI50: 1.98 µM
  TGI: 4.42 µM
DU-145 prostate
  GI50: 2.66 µM
  TGI: 7.17 µM
M14 melanoma
  GI50: 1.76 µM
  TGI: 3.32 µM
RXF 393 renal
  GI50: 1.68 µM
  TGI: 3.47 µM
MALME-3M melanoma
  GI50: 1.56 µM
  TGI: 3.51 µM
MDA-MB-231 breast
  GI50: 1.98 µM
  TGI: 4.39 µM
SNB-19 CNS
  GI50: 2.63 µM
  TGI: 9.36 µM
UACC-62 melanoma
  GI50: 1.42 µM
  TGI: 3.2 µM
HOP-92 NSCLC
  GI50: 1.25 µM
  TGI: 2.72 µM
OVCAR-8 ovarian
  GI50: 2.95 µM
  TGI: 8.79 µM
MOLT-4 leukemia
  GI50: 1.66 µM
  TGI: 4.14 µM
CAKI-1 renal
  GI50: 2.42 µM
  TGI: 8.16 µM
SF-295 CNS
  GI50: 1.9 µM
  TGI: 3.92 µM
SK-MEL-2 melanoma
  GI50: 1.79 µM
  TGI: 3.53 µM
NCI/ADR-RES ovarian
  GI50: 2.44 µM
  TGI: 6.66 µM
CCRF-CEM leukemia
  GI50: 1.86 µM
  TGI: 5.91 µM
MDA-MB-435
  GI50: 2.04 µM
  TGI: 4.36 µM
PC-3 prostate
  GI50: 1.82 µM
  TGI: 4.89 µM

## O=c1[nH]c2ccccc2c(=O)n1/N=C/c1ccc(O)cc1
K-562 leukemia
  TGI: > 100 µM
ACHN renal
  TGI: > 100 µM
UACC-257 melanoma
  TGI: > 100 µM
MCF7 breast
  TGI: > 100 µM
TK-10 renal
  TGI: > 100 µM
EKVX NSCLC
  TGI: > 100 µM
UO-31 renal
  TGI: > 100 µM
NCI-H460 lung
  TGI: > 100 µM
SK-OV-3 ovarian
  TGI: > 100 µM
BT-549 breast
  TGI: > 100 µM
HT29 colon
  TGI: > 100 µM
HCT-116 colon
  TGI: > 100 µM
COLO 205 colon
  TGI: > 100 µM
SK-MEL-28 melanoma
  TGI: > 100 µM
SNB-75 CNS
  TGI: > 100 µM
A549 NSCLC
  TGI: > 100 µM
HOP-62 NSCLC
  TGI: 48 µM
SF-268 CNS
  TGI: > 100 µM
RPMI-8226 leukemia
  TGI: > 100 µM
SK-MEL-5 melanoma
  TGI: > 100 µM
SN12C renal
  TGI: > 100 µM
HCT-15 colon
  TGI: > 100 µM
NCI-H226 lung
  TGI: > 100 µM
SF-539 CNS
  TGI: > 100 µM
HS 578T breast
  TGI: 74.6 µM
OVCAR-5 ovarian
  TGI: > 100 µM
LOX IMVI melanoma
  TGI: > 100 µM
U251 CNS
  TGI: > 100 µM
KM12 colon
  TGI: > 100 µM
786-0 renal
  TGI: > 100 µM
IGROV1 ovarian
  TGI: > 100 µM
OVCAR-3 ovarian
  TGI: > 100 µM
T-47D breast
  TGI: > 100 µM
A498 renal
  TGI: > 100 µM
NCI-H23 lung
  TGI: > 100 µM
HL-60(TB) leukemia
  TGI: > 100 µM
SW-620 colon
  TGI: > 100 µM
DU-145 prostate
  TGI: > 100 µM
M14 melanoma
  TGI: > 100 µM
MDA-MB-231 breast
  TGI: > 100 µM
SNB-19 CNS
  TGI: > 100 µM
UACC-62 melanoma
  TGI: > 100 µM
HOP-92 NSCLC
  TGI: 90.4 µM
OVCAR-8 ovarian
  TGI: > 100 µM
MOLT-4 leukemia
  TGI: > 100 µM
SR leukemia
  TGI: > 100 µM
CAKI-1 renal
  TGI: > 100 µM
SF-295 CNS
  TGI: > 100 µM
SK-MEL-2 melanoma
  TGI: > 100 µM
NCI/ADR-RES ovarian
  TGI: > 100 µM
CCRF-CEM leukemia
  TGI: > 100 µM
MDA-MB-435
  TGI: > 100 µM
PC-3 prostate
  TGI: > 100 µM
